Experimental data reported in paper PMC6471591, “Preparation of Sesquiterpene Lactone Derivatives: Cytotoxic Activity and Selectivity of Action” (Molecules, 2019).
Where two headings read alike, the source gives them in different places.

What was measured:
[1] = tested on: A549 cells; experiment: Antiproliferative SRB assay (NCI protocol), 48 h; type: cell-based, human; conditions: splenocyte CC50 versus A549 GI50
[2] = tested on: HeLa cells; experiment: Antiproliferative SRB assay (NCI protocol), 48 h; type: cell-based, human; conditions: splenocyte CC50 versus HeLa GI50
[3] = tested on: HBL100 cells; experiment: Antiproliferative SRB assay (NCI protocol), 48 h; type: cell-based; conditions: Homo sapiens, read-out: 50% growth inhibition (GI50) ± SD, HBL100
Protocol: (§1) In vitro antiproliferative activity was evaluated using the protocol of the National Cancer Institute (NCI) after 48 h of drug exposure using the sulforhodamine B (SRB) assay. […] We cannot discard that increasing lipophilicity may well result in an increase in cytotoxicity in vitro.
(§2) The following human solid tumor cell lines were used in this study: HBL-100 (breast), HeLa (cervix), SW1573 (non-small cell lung), T-47D (breast), A549 (lung), and WiDr (colon). Cells were maintained in 25 cm^2 culture flasks in RPMI 1640 supplemented with 5% heat-inactivated fetal calf serum and 2 mM L-glutamine in a 37 °C, 5% CO2, 95% humidified air incubator. Exponentially growing cells were trypsinized and resuspended in antibiotic containing medium (100 units penicillin G and 0.1 mg of streptomycin per mL). Single-cell suspensions displaying >97% viability by trypan blue dye exclusion test were subsequently counted. After counting, dilutions were made to give the appropriate cell densities for inoculation onto 96-well microtiter plates. Cells were inoculated in a volume of 100 μL per well at densities of 20,000 (WiDr), 15,000 (T-47D and A549), and 10,000 (HeLa, SW1573, and HBL-100) cells per well, based on their doubling times.
(§3) Chemosensitivity tests were performed using the SRB assay of the NCI with slight modifications. Briefly, pure compounds were initially dissolved in DMSO at 400 times the desired final maximum test concentration. Control cells were exposed to an equivalent concentration of DMSO (0.25% v/v, negative control). Each agent was tested in triplicate at different dilutions in the range 1–100 μM. Drug treatment started on day 1 after plating. Drug incubation periods were 48 h, after which cells were precipitated with 25 μL of ice-cold 50% (w/v) trichloroacetic acid and fixed for 60 min at 4 °C. Then, the SRB assay was performed. Optical density (OD) of each well was measured at 492 nm, using BioTek’s PowerWave XS Absorbance Microplate Reader (Highland Park, Winooski, VT, USA). Values were corrected for background OD from wells containing only culture medium. The percentage growth (PG) was calculated with respect to untreated control cells (C) at each level of drug concentrations based on the difference in OD at the start time (T0) and at the end of drug exposure (T), according to NCI formulas. Therefore, if T is greater than or equal to T0, the calculation is 100 × [(T–T0)/(C–T0)]. If T is lower than T0, denoting cell death, the calculation is 100 × [(T–T0)/(T0)]. The effect is defined as the growth percentage, where 50% growth inhibition (GI50) represents the concentration at which PG is +50. Based on these calculations, a PG value of 0 corresponds to the number of cells present at the beginning of drug exposure, while negative PG values denote net cell death.

[4] = tested on: A549 cells; experiment: Antiproliferative SRB assay (NCI protocol), 48 h; type: cell-based; conditions: Homo sapiens, read-out: 50% growth inhibition (GI50) ± SD, A549
Protocol: as §1, §2, §3

[5] = tested on: HeLa cells; experiment: Antiproliferative SRB assay (NCI protocol), 48 h; type: cell-based; conditions: Homo sapiens, read-out: 50% growth inhibition (GI50) ± SD, HeLa
Protocol: as §1, §2, §3

[6] = tested on: HBL100 cells; experiment: Antiproliferative SRB assay (NCI protocol), 48 h; type: cell-based, human; conditions: splenocyte CC50 versus HBL100 GI50
[7] = tested on: SW1573 cells; experiment: Antiproliferative SRB assay (NCI protocol), 48 h; type: cell-based, human; conditions: for GI50: Homo sapiens, read-out: 50% growth inhibition (GI50) ± SD, SW1573; for Selectivity Index, SW1573: splenocyte CC50 versus SW1573 GI50
Protocol: as §1, §2, §3

[8] = tested on: T47-D cells; experiment: Antiproliferative SRB assay (NCI protocol), 48 h; type: cell-based, human; conditions: for GI50: Homo sapiens, T47D, read-out: 50% growth inhibition (GI50) ± SD, T47-D; for Selectivity Index, T47-D: splenocyte CC50 versus T47-D GI50
Protocol: as §1, §2, §3

[9] = tested on: WiDr cells; experiment: Antiproliferative SRB assay (NCI protocol), 48 h; type: cell-based, human; conditions: for GI50: Homo sapiens, read-out: 50% growth inhibition (GI50) ± SD, WiDr; for Selectivity Index, WiDr: splenocyte CC50 versus WiDr GI50
Protocol: as §1, §2, §3

[10] = Cytotoxicity on primary cell culture (propidium iodide, flow cytometry); type: cell-based
Protocol: The cytotoxicity of the sesquiterpene lactones and its derivatives was evaluated using mouse splenocytes. […] Cumanin derivatives (4–11) have shown CC50 values and selectivity indexes higher than natural compound 1. […] The incorporation of two triazole groups in cumanin (1) reduced cytotoxicity on normal cells and improved selectivity against tumor cell lines.
In a 96-well plate, spleen cells from Balb/c mouse (1.5 × 10^5) were incubated with different drug dilutions (200, 100, 50, 10, and 5 μg/mL) in RPMI medium containing 10% fetal calf serum. After 48 h of incubation at 37 °C (5% CO2), cells were harvested, washed once with PBS, and stained with 2.5 μg/mL propidium iodide (PI) for 5 min at room temperature. Subsequently, cell death was assessed by flow cytometry using a BD FACSaria II cytometer. Cells incubated only with a drug vehicle were used as a 100% viability control and death percentage was calculated according to the following formula: Death(%)=[1−(%PI^−cells)drug−treated/(%PI^−cells)100% viability control]×100.
Then the concentration capable of causing cell death in 50% of splenocytes (CC50) was determined using a non-linear regression approach.

[11] = HBL-100, HBL100 (breast), SRB, 48 h drug exposure
[12] = A549 (lung), SRB, 48 h drug exposure
[13] = HeLa (cervix), SRB, 48 h drug exposure
[14] = SW1573 (non-small cell lung), SRB, 48 h drug exposure
[15] = T47-D (breast), SRB, 48 h drug exposure
[16] = WiDr (colon), SRB, 48 h drug exposure
[17] = Balb/c mouse spleen cells, 48 h incubation, PI staining, read-out: CC50 ± SD, splenocytes (concentration that causes 50% cell death)

| Compound | Selectivity Index, A549 [1] | Selectivity Index, HeLa [2] | GI50 [3, 11] | GI50 [4, 12] | GI50 [5, 13] | Selectivity Index, HBL100 [6] | GI50 [7, 14] | Selectivity Index, SW1573 [7] | GI50 [8, 15] | Selectivity Index, T47-D [8] | GI50 [9, 16] | Selectivity Index, WiDr [9] | CC50 at 48 h ([10]; Balb/c, mouse) | also measured |
| --- | --- | --- | --- | --- | --- | --- | --- | --- | --- | --- | --- | --- | --- | --- |
| C=C1C(=O)O[C@@H]2C[C@H](C)[C@@H]3C[C@H](O[Si](C)(C)C)[C@H](O[Si](C)(C)C)[C@@]3(C)C[C@H]12 [Compound 5] | 27.7 | 22.9 | 3.6 µM | 2.4 µM | 2.9 µM | 18.4 | 1.8 µM | 36.9 | 1.9 µM | 34.9 | 2.2 µM | 30.2 |  |  |
| C=C1C(=O)O[C@@H]2[C@H]1CC[C@H](C)[C@@]1(O[Si](C)(C)C)C=CC(=O)[C@@]21C [Compound 15] | 0.7 | 0.7 | 4.6 µM | 3.4 µM | 3.3 µM | 0.5 | 2.4 µM | 0.9 | 4.2 µM | 0.5 | 6.8 µM | 0.3 | 2.3 µM |  |
| C=C1C(=O)O[C@@H]2[C@H]1CC[C@H](C)[C@@]1(O)C=CC(=O)[C@@]21C [Compound 3, hymenin] | 0.4 | 0.3 | 17 µM | 9.7 µM | 14 µM | 0.3 | 6.4 µM | 0.7 | 20 µM | 0.2 | 18 µM | 0.2 | 4.4 µM |  |
| C=C1C(=O)O[C@@H]2C[C@H](C)[C@@H]3C[C@H](O[Si](c4ccccc4)(c4ccccc4)C(C)(C)C)[C@H](O)[C@@]3(C)C[C@H]12 [Compound 7] | 89.2 | 71.3 | 3.7 µM | 1.6 µM | 2 µM | 38.6 | 1.5 µM | 95.1 | 3.4 µM | 42.0 | 3.1 µM | 46.0 |  |  |
| C=C1C(=O)O[C@@H]2C[C@@H](C)[C@@H]3C=CC(=O)[C@@]3(C)[C@@H](OC(C)=O)[C@H]12 [Compound 12] |  |  | 3.6 µM |  |  | 0.1 | 4.7 µM | 0.1 | 1.6 µM | 0.2 |  |  |  | CC50 [10, 17]: 0.4 µM |
| C=C1C(=O)O[C@@H]2C[C@H](C)[C@@H]3C[C@H](O[Si](C)(C)C(C)C)[C@H](O[Si](C)(C)C(C)C)[C@@]3(C)C[C@H]12 [Compound 6] | 76.5 | 70.6 | 2.3 µM | 1.2 µM | 1.3 µM | 39.9 | 1.2 µM | 76.5 | 2.2 µM | 41.7 | 2.4 µM | 38.2 | 91.8 µM |  |
| C=C1C(=O)O[C@@H]2C[C@@H](C)[C@@H]3C=CC(=O)[C@@]3(C)[C@@H](O)[C@H]12 [Compound 2, helenalin] | 0.5 | 0.7 |  |  |  | 0.4 |  | 0.5 |  | 0.4 |  | 0.4 |  | CC50 at 48 h [10, 17]: 1.2 µM; GI50 ([3]; HBL-100, 48 h): 2.8 µM; GI50 ([4]; A549, 48 h): 2.3 µM; GI50 ([5]; HeLa, 48 h): 1.7 µM; GI50 ([7]; SW1573, 48 h): 2.2 µM; GI50 ([8]; 48 h): 2.9 µM; GI50 ([9]; WiDr, 48 h): 2.7 µM |
| C=C1C(=O)OC2CC(C)C3CC(O)C(O)C3(C)CC12 (centres unmarked) [Compound 1, cumanin] | 1.5 | 1.5 | 21 µM | 19 µM | 19 µM | 1.4 | 14 µM | 2.1 | 30 µM | 1.0 | 36 µM | 0.8 |  |  |
